System: BAF3 cells expressing AXL
Assay: BAF3-AXL cell proliferation assay (CellTiter-Glo)
Type: cell-based
Details: Mus musculus, 48 hours, 2% FBS
Description: To evaluate the cellular potency and selectivity within the TAM receptor family, mouse BAF3 cell lines with stable expression of AXL, MER, or TYRO3 were generated.
The cytoplasmic domain of AXL, MER, or TYRO3 fused with dimerization sequence and HA tag was cloned into a pMSCV (murine stem cell virus) vector with a puromycin-resistance marker to generate three constructs individually by electroporation into BAF3 cells. Single clones that were IL-3-independent and puromycin-resistant were selected and characterized. To evaluate effects on BAF3 cell proliferation, 1000 cells/well of BAF3, BAF3-AXL, BAF3 MER, or BAF3-TYRO3 cells were treated in the presence or absence of Compound 1 at various concentrations (10 concentration points with a three-fold dilution factor from the highest concentration of 10 μM) diluted in RPMI-1640 with 2% FBS for 48 hours in a 384-well plate. Cell viability was measured by ATP assay (CellTiter-Glo Assay, Promega, Madison, Wis.) according to the manufacturer's procedure. The data were converted to percent inhibition relative to DMSO control, and IC50 curves were fitted using GraphPad Prism software.

## CC(C)C(=O)N1CCC(c2cc(-c3ccc(NC(=O)c4cn(C(C)C)c(=O)n(-c5ccccn5)c4=O)cc3)c3c(N)ncnn23)CC1 [Compound 1, N-(4-(4-Amino-7-(1-isobutyrylpiperidin-4-yl)pyrrolo[1,2-f][1,2,4]triazin-5-yl)phenyl)-1-isopropyl-2,4-dioxo-3-(pyridin-2-yl)-1,2,3,4-tetrahydropyrimidine-5-carboxamide]
  GI50: 16 ± 11 nM

From patent publication US12214036B2, “Combination therapy comprising AXL/MER and PD-1/PD-L1 inhibitors” (Incyte Corporation, priority 2020, dated 2025)
